Assay results reported in patent US8716296B2 (Ingenium Pharmaceuticals GmbH, priority 2007, dated 2014).
Where a name gives a salt, the structure may show the parent alone.

Tested on: LPS induced THP-1 macrophages
Experiment: In vitro THP-1 assay, model of cytokine inhibition
Assay type: cell-based, human
Conditions: differentiated THP-1 cells, 60 min pre-incubation, LPS 4-48 h, ELISA, versus vehicle (DMSO)
Description: The human THP-1 cell line can be utilized as an in vitro model of cytokine expression as mediated by Lipopolysaccharide (LPS) or Tumor Necrosis Factorα [TNFα].
Monocytic THP-1 cells (ATCC; TIB-202) can be differentiated into macrophage-like cells expressing pro-inflammatory cytokines like TNFα, IL6 and IL1β upon induction with LPS or by TNFα (autocrine induction) itself.
THP-1 cells are grown in modified RPMI-1640 medium (ATCC, Cat. No. 30-2001) supplemented with 10% FCS and 1% Pen/Strep. For cytokine inhibition assays, cells are seeded at a density of 5×10^5 cells/ml into 6-well plates in standard growth medium supplemented with 100 ng/ml PMA (Sigma, P1585) to induce differentiation into macrophage-like cells. After 24 hours, the medium is replaced with standard growth medium (without PMA) and the cells are incubated for another 48 hours to complete differentiation.
After 72 h of differentiation, the medium is replaced with serum free growth medium, and CDK-inhibiting compounds as well as reference compounds such as positive and negative controls, each dissolved in DMSO are added at concentrations ranging from 0.5 to 5 μM (final concentration of DMSO in the well is 0.1%). Cells are incubated for 60 min with compounds prior to stimulation with 100 ng/ml LPS (Sigma, L2630) for another 4-48 hours. Supernatants are collected and assayed immediately for cytokine expression, e.g. for TNFα, IL-6 and IL-1b using commercially available sandwich ELISA assays (eBioscience, Cat. No 88-7346, 88-7066, 88-7010) or kept frozen at […] until evaluation.
Concentrations of TNFα, IL6 and IL1β within the cell culture supernatants are measured by using commercial ELISA Kits (eBioscience) according to the manufacturers instructions.
CDK-inhibitory compounds #1A, 16A, 20A, and 25A were administered to differentiated THP-1 cells in triplicates as described above (see section 2.). After 60 min of pre-incubation with test or reference compound (SB203580, a p38 inhibitor and BMS345541, an IKK-inhibitor) alone, cells were stimulated with LPS. After incubation for 4-48 h, supernatants were collected and ELISA based determinations of cytokine supernatant concentrations were performed as described in section 3, supra.

| SMILES | IL6 protein concentration in the cell supernatant | TNFα protein concentration in the cell supernatant |
| --- | --- | --- |
| COc1ccccc1-c1cc(NC(=O)C(C)(C)C)ncn1 [Compound 25A, N-[6-(2-methoxy-phenyl)-pyrimidin-4-yl]-2,2-dimethyl-propionamide] | significant inhibitory effect | significant inhibitory effect |

Tested on: not given
Experiment: not given
Conditions: not given

| SMILES | melting point |
| --- | --- |
| COc1ccccc1-c1cc(NC(=O)[C@@H]2CCCNC2)ncn1 [Compound 18A, (R)-Piperidine-3-carboxylic acid [6-(2-methoxy-phenyl)-pyrimidin-4-yl]-amide] | 210 to 213 °C |
| COc1ccc(F)cc1-c1cc(NC(=O)C2CCC(N)CC2)ncn1 (centres unmarked) (as salt: TFA) [Example 38, 4-amino-N-(6-(5-fluoro-2-methoxyphenyl)pyrimidin-4-yl)cyclohexanecarboxamide*TFA] | 162 °C |
| CCOc1cc(F)ccc1-c1cc(NC(=O)C2CCC(=O)NC2)ncn1 (centres unmarked) [Example 24, N-(6-(2-ethoxy-4-fluorophenyl)pyrimidin-4-yl)-6-oxopiperidine-3-carboxamide] | 222 °C |
| CCOc1ccc(F)cc1-c1cc(NC(=O)C2CCC(=O)NC2)ncn1 (centres unmarked) [Example 16, N-(6-(2-ethoxy-5-fluorophenyl)pyrimidin-4-yl)-6-oxopiperidine-3-carboxamide] | 208 °C |
| CCOc1ccccc1-c1cc(NC(=O)C2CCC(=O)NC2)ncn1 (centres unmarked) [Example 15, N-(6-(2-ethoxyphenyl)pyrimidin-4-yl)-6-oxopiperidine-3-carboxamide] | 117 °C |
| COc1ccc(F)cc1-c1cc(NC(=O)[C@H]2CCCC[C@H]2N)ncn1.Cl [Example 46, (1S,2R)-2-amino-N-(6-(5-fluoro-2-methoxyphenyl)pyrimidin-4-yl)cyclohexanecarboxamide*HCl] | 272 °C |
| CC(C)Oc1ccc(F)cc1-c1cc(NC(=O)C2CCC(=O)NC2)ncn1 (centres unmarked) [Example 26, N-(6-(5-fluoro-2-isopropoxyphenyl)pyrimidin-4-yl)-6-oxopiperidine-3-carboxamide] | 236 °C |
| COc1cc(F)ccc1-c1cc(NC(=O)C2CCC(=O)NC2)ncn1 (centres unmarked) [Example 14, N-(6-(4-fluoro-2-methoxyphenyl)pyrimidin-4-yl)-6-oxopiperidine-3-carboxamide] | 148 °C |
| COc1ccc(F)cc1-c1cc(NC(=O)C(=O)c2ccccc2)ncn1 [Example 61, N-(6-(5-fluoro-2-methoxyphenyl)pyrimidin-4-yl)-2-oxo-2-phenylacetamide] | 146 °C |
| COc1ccccc1-c1cc(NC(=O)C2CCCNC2)nc(C)n1 (centres unmarked) [Compound 22A, piperidine-3-carboxylic acid [6-(2-methoxy-phenyl)-2-methyl-pyrimidin-4-yl]-amide] | 229 to 230 °C |
| CC(C)Oc1cc(F)ccc1-c1cc(NC(=O)C2CCC(=O)NC2)ncn1 (centres unmarked) [Example 25, N-(6-(4-fluoro-2-isopropoxyphenyl)pyrimidin-4-yl)-6-oxopiperidine-3-carboxamide] | 105 °C |
| COc1ccc(F)cc1-c1cc(NC(=O)C2CCCCN2)ncn1 (centres unmarked) (as salt: TFA) [Example 37, N-(6-(5-fluoro-2-methoxyphenyl)pyrimidin-4-yl)piperidine-2-carboxamide*TFA] | 122 °C |
| COc1ccccc1-c1cc(NC(=O)[C@H]2CCCNC2)ncn1 [Compound 17A, (S)-Piperidine-3-carboxylic acid [6-(2-methoxy-phenyl)-pyrimidin-4-yl]-amide] | 163 to 165 °C |

Second part, the compound after the results:

| melting point | SMILES |
| --- | --- |
| 222 °C | COc1ccc(F)cc1-c1cc(NC(=O)C2CNC(=O)C2)ncn1 (centres unmarked) [Example 18, N-(6-(5-fluoro-2-methoxyphenyl)pyrimidin-4-yl)-5-oxopyrrolidine-3-carboxamide] |
| 225 °C | COc1ccc(F)cc1-c1cc(NC(=O)C2CCNC(=O)C2)ncn1 (centres unmarked) [Example 40, N-(6-(5-fluoro-2-methoxyphenyl)pyrimidin-4-yl)-2-oxopiperidine-4-carboxamide] |
| 200 °C | CCCN1N=C(C(=O)Nc2cc(-c3cc(F)ccc3OC)ncn2)CCC1=O [Example 11, N-(6-(5-fluoro-2-methoxyphenyl)pyrimidin-4-yl)-1,4,5,6-tetrahydro-6-oxo-1-propylpyridazine-3-carboxamide] |
| 208 °C | COc1ccc(F)cc1-c1cc(NC(=O)Cc2cc(F)c(F)cc2F)ncn1 [Example 62, N-(6-(5-fluoro-2-methoxyphenyl)pyrimidin-4-yl)-2-(2,4,5-trifluorophenyl)acetamide] |
| 245 °C | COc1ccc(F)cc1-c1cc(NC(=O)C2CCC(=O)NC2)ncn1 (centres unmarked) [Example 17, N-(6-(5-fluoro-2-methoxyphenyl)pyrimidin-4-yl)-6-oxopiperidine-3-carboxamide] |
| 265 °C | COc1ccc(F)cc1-c1cc(NC(=O)c2cnn3cc(C)cnc23)ncn1 [Example 59, N-(6-(5-fluoro-2-methoxyphenyl)pyrimidin-4-yl)-6-methylpyrazolo[1,5-a]pyrimidine-3-carboxamide] |
| 176 °C | CCc1ccc(C(=O)Nc2cc(-c3cc(F)ccc3OC)ncn2)nc1 [Example 56, 5-ethyl-N-(6-(5-fluoro-2-methoxyphenyl)pyrimidin-4-yl)pyridine-2-carboxamide] |
| 276 °C | COc1ccc(F)cc1-c1cc(NC(=O)c2cc(=O)[nH]c3ccccc23)ncn1 [Example 60, N-(6-(5-fluoro-2-methoxyphenyl)pyrimidin-4-yl)-1,2-dihydro-2-oxoquinoline-4-carboxamide] |
| 160 °C | COc1ccc(F)cc1-c1cc(NC(=O)C2CC(=O)NC(=O)C2)ncn1 [Example 19, N-(6-(5-fluoro-2-methoxyphenyl)pyrimidin-4-yl)-2,6-dioxopiperidine-4-carboxamide] |
| 155 °C | COc1ccc(F)cc1-c1cc(NC(=O)C2CCOCC2)ncn1 [Example 39, N-(6-(5-fluoro-2-methoxyphenyl)pyrimidin-4-yl)-tetrahydro-2H-pyran-4-carboxamide] |
| 190 °C | COc1ccc(F)cc1-c1cc(NC(=O)C2(C(N)=O)CC2)ncn1 [Example 10, N-(6-(5-fluoro-2-methoxyphenyl)pyrimidin-4-yl)cyclopropane-1,1-dicarboxamide] |
| 180 °C | COc1ccc(F)cc1-c1cc(NC(=O)C2CCCNC2=O)ncn1 (centres unmarked) [Example 41, N-(6-(5-fluoro-2-methoxyphenyl)pyrimidin-4-yl)-2-oxopiperidine-3-carboxamide] |
| 175 °C | CCc1cc(C(=O)Nc2cc(-c3cc(F)ccc3OC)ncn2)no1 [Example 58, 5-ethyl-N-(6-(5-fluoro-2-methoxyphenyl)pyrimidin-4-yl)isoxazole-3-carboxamide] |
| 170 °C | COc1ccc(F)cc1-c1cc(NC(=O)c2cc(C)on2)ncn1 [Example 55, N-(6-(5-fluoro-2-methoxyphenyl)pyrimidin-4-yl)-5-methylisoxazole-3-carboxamide] |
